Legend:
DOP (δ-opioid receptor) = biological target: T1, DOP (δ-opioid receptor) (Homo sapiens, UniProt P41143); assay: TR-FRET cAMP assay (LANCE Ultra), inhibition of forskolin-stimulated cAMP; format: cell-based
T1 construct: gene OPRD1; full-length receptor stably expressed in CHO-K1 cells (ChanTest)
From the text: TR-FRET cAMP assay (LANCE Ultra), inhibition of forskolin-stimulated cAMP on DOP (δ-opioid receptor)

MOP (μ-opioid receptor) = biological target: T2, MOP (μ-opioid receptor) (Homo sapiens, UniProt P35372); assay: as above; format: cell-based
T2 construct: gene OPRM1; full-length receptor stably expressed in CHO-K1 cells (ChanTest)
From the text: TR-FRET cAMP assay (LANCE Ultra), inhibition of forskolin-stimulated cAMP on MOP (μ-opioid receptor)

T2 sequence (P35372 whole entry): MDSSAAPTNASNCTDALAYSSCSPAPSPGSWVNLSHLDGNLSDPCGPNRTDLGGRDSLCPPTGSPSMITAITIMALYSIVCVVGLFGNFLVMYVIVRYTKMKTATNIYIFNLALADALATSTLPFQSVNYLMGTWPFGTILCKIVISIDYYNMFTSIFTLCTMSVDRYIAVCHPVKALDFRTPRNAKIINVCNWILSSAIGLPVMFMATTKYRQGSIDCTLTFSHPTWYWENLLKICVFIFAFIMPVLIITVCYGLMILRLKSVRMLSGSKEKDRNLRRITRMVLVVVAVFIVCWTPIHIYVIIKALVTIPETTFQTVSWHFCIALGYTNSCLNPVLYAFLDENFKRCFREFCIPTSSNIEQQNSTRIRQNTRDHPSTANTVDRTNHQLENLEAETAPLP
T1 sequence (P41143 whole entry): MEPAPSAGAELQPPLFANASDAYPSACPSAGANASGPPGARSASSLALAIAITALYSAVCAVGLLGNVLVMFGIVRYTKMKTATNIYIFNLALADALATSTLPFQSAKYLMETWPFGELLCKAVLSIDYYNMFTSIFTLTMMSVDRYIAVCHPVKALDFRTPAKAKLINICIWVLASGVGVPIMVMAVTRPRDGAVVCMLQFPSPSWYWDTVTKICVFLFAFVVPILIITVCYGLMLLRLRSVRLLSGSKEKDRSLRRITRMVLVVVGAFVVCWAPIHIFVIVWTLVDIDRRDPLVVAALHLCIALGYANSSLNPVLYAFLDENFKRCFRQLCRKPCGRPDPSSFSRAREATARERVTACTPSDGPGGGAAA

CN(C(=O)/C=C/c1ccoc1)[C@@H]1CC[C@@]2(O)[C@H]3Cc4ccc(O)c5c4[C@@]2(CCN3CC2CC2)[C@H]1O5 [Nalfurafine] was tested, and the EC50 (DOP (δ-opioid receptor)) was 132 nM and the EC50 (MOP (μ-opioid receptor)) was 7.8 nM.

Reference: PMC10598265, “Effects of the novel selective κ-opioid receptor agonist NP-5497-KA on morphine-induced reward-related behaviors” (Scientific Reports, 2023)
